Patent US8859819B2, “Sulphurated derivatives of resorcinol, preparation of same and cosmetic uses thereof” (Pierre Fabre Dermo-Cosmetique, priority 2009, dated 2014)
Read-outs that look alike come from different tables or passages of the source.

Experiments:
[1] = Antioxidant capacity by chemiluminescence (Photochem Analytik Jena); details: for μg of sample for 1 μg of Trolox: Trolox equivalent, lower = stronger antioxidant
Procedure: This test is used to determine the antioxidant capacity of the molecules. It is a method that generates free radicals by a photochemical signal. The intensity of the oxidation is 1000 times greater than that obtained under normal conditions.
The detection is carried out by chemiluminescence. It enables the evaluation of hydrosoluble and liposoluble anti-oxidant molecules or extracts.
The results are expressed respectively in equivalent quantity of vitamin C or Trolox (6-hydroxy-2,5,7,8-tetramethylchroman-2-carboxylic acid). The sensitivity is of the order of a nanomole.
The antioxidant activity studied in this test represents the capacity to trap specifically superoxide anions by chemiluminescence.
The quantified results are expressed in Trolox equivalent (standard), i.e. in “μg of product for 1 μg of Trolox”. This signifies that a quantity×of sample is needed to obtain an activity equivalent to the activity detected for 1 μg of standard. It is an anti-oxidant power relative to a reference, which makes it possible to disregard the concentration tested.
The superoxide radical: 02^0− is generated by a photochemical reaction: L+hv (UV)+O2→L*O2→L^0++O2^0−
A part of the superoxide anions is quenched by the anti-oxidants. The remaining free radicals are quantified by chemiluminescence. L^0++O2^0−→N2+AP*^2−→AP^2−+hv (luminescence)

mushroom tyrosinase = target: T1, mushroom tyrosinase (Agaricus bisporus, UniProt C7FF04); assay: Tyrosinase inhibition test (in vitro acellular depigmenting activity); format: biochemical; details: for Tyrosinase depigmenting activity result: class symbol, assay from 250 to 150 μM, overall tyrosinase activity (MPMOg), L-tyrosine substrate
T1 construct: purchased Sigma T-3824
Description: A) Determination of the Depigmenting Activity in an in vitro Acellular Test: Tyrosinase Inhibition Test)
This test is used to evaluate the depigmenting activity of the molecules tested. Tyrosinase is a limiting enzyme in melanogenesis.
It belongs to the family of oxydoreductases. It has in particular the function: monophenol monooxygenase (MPMO) and polyphenol oxidase (PPO).
It is synthesised at the level of the melanocytes. It is activated during its migration towards melanosome […]. It transforms tyrosine into DOPA then dopaquinone, which leads in fine to a polymerisation, i.e. a production of pigments (see diagram below).
The substrate: L-tyrosine, is transformed into L-DOPA by the monophenol mono oxygenase function which is transformed by the polyphenol oxidase function from tyrosinase into dopaquinone. The latter is going to self-oxidise into dopachrome which is measured by spectrophotometry at 490 nm.
More precisely, it is the overall tyrosinase activity (MPMOg) which is measured since it is the dopachrome in fine that is assayed. Thus the products tested on MPMOg (=measurement of the activity on PPO and MPMO) can cumulate the inhibition of the 2 functions, • inhibiting uniquely the MPMO function stricto sensus (transformation of tyrosine into DOPA) as a complement to the PPO test, • could inhibit PPO uniquely. General Experimental Conditions:

B16-F10 cells = assay: Melanin assay test in B16-F10 cells; format: cell-based, murine; details: Mus musculus, read-out: B16 activity results -% at X μM
Procedure: B) Melanin Assay Test in B16-F10 Cells:
This involves a test of measuring the synthesis of melanin by colorimetric assay on a murine melanoma cell line: the B16-F10 line. This test makes it possible to evaluate the depigmenting power of active ingredients.
The B16-F10 cells are cultured in 96-well plates in DMEM medium supplemented with FCS (foetal calf serum), and incubated for 24 hours at 37° C., 5% CO2. The cells are then stimulated with 0.1 μM α-MSH (to stimulate the synthesis of melanin, the stimulation observed is around 150%) and treated for 72 hours with the active ingredients to be tested. Each concentration of active ingredient is tested at least in triplicate. The total melanin followed by the intracellular melanin dissolved in the lysis buffer are then assayed by absorbance reading at 405 nm. The total proteins are assayed in the lysate and the results are expressed in mg melanin/mg proteins. The percentage of activity is calculated as follows: […]
A negative value indicates an inhibition, whereas a positive value indicates an induction of the synthesis of melanin.
• B16-F10 cell line between P10 and P20 (murine melanocytes) (ATCC, CRL-6475)
Reagents: • DMEM without phenol red (GibcoBRL, 31053-028), 200 mM Glutamax-I Supplement (GibcoBRL, 35050-038), D-PBS (GibcoBRL, 14190-094), Foetal calf serum (Invitrogen, 10270-098), Trypsine-EDTA (GibcoBRL, 25300-054), NaOH (Sigma, S8045-500G), DMSO (Sigma, 471267-1L), Nle, Phe—Melanocyte Stimulating Hormone (Sigma, M-8764), Melanin (Sigma, M-0418), BCA-Copper (Sigma, B9643 and C2284), BSA (Sigma, P0914) C) Test for the Study of the Antioxidant Capacity by Chemiluminescence (Photochem Analytik Jena) Principle: […]

[2] = Protection of linoleic acid following a UV stress (Fenton conditions, MDA-TBA assay); set-up: % Protection Linoleic acid under UV/Fenton: concentration or dose not given beside the values; details: for % Protection Linoleic acid under UV/Fenton: UV + H2O2 + iron II
Description: D) Test of Protection of Linoleic Acid Following a UV Stress. Target: Protection of Linoleic Acid Under Fenton Conditions, UV Irradiation Linoleic acid belongs to the family of polyunsaturated fatty acids (PUFA) (AGPI). Sensitive to oxidation, linoleic acid is a favoured target for oxygenated free radicals (OFR) in biological media. When biological membranes are exposed to an oxidative stress, the components the most affected are the phospholipids constituted of PUFA and cholesterol. Their degradation leads to lipidic peroxidation and generally to destructuring. Lipidic peroxidation is a self-catalysing process which generally involves OFR. Lipidic peroxidation is in part responsible for skin ageing. The method employed to evaluate lipid peroxidation is based on the coupling of thiobarbituric acid (TBA) and secondary degradation products leading to coloured compounds detectable by spectrofluorometry. The essential secondary compound of final degradation is malondialdehyde, MDA. MDA is a carcinogenic and mutagenic aldehyde, it acts on proteins and DNA. The sample to be tested is placed in contact with linoleic acid in a weight/weight ratio. The sample undergoes an MED (Minimal Erythemal Dose) irradiation under Fenton conditions, namely in the presence of H202 and iron II in a solar simulator. Following irradiation, the reaction mixture is taken up in methanol and derivatised at 90° C. with TBA. Chromogene, the MDA-TBA complex, representative of the equimolar production of MDA is assayed by fluorimetry (excitation at 525 nm, emission at 549 nm). The results are expressed in fluorescence units, as a function of a MDA-TBA control range then expressed as concentration of the MDA-TBA complex. Then, the percentage of the starting MDA/linoleic acid (LA) ratio is determined. Then the percentage of protection of linoleic acid is determined. The product assay is expressed as weight/weight ratio, in other words in weight percentage with respect to the total quantity of linoleic acid. The maximal MDA level is determined by the condition UV+H202+iron II (F). The percentage of protection of linoleic acid represents: the % ratio of MDA under maximal stress conditions untreated over the % of MDA under stress conditions treated by the product.

[3] = reference products of the interpretation scale
[4] = monophenol monooxygenase (MPMO) function, reference molecules for the test, read-out: IC 50 (MPMO)

T1 sequence (C7FF04 1-392 limits assumed): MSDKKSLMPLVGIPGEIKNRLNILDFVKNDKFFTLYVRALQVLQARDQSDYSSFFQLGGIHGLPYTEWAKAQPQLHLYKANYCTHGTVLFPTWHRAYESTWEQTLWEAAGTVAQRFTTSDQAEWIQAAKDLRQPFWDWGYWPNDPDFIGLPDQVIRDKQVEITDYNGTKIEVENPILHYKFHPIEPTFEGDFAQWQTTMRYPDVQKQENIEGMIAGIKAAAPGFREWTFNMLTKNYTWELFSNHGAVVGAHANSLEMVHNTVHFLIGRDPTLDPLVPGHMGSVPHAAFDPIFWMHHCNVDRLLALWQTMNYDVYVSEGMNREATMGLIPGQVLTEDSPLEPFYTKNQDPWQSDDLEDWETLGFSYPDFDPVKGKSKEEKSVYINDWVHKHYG

Row | Tyrosinase depigmenting activity result (mushroom tyrosinase) | Compound | μg of sample for 1 μg of Trolox [1] | % Protection Linoleic acid under UV/Fenton [2] | also measured
1 | – | O=C(O)CCCC[C@@H]1CCSS1 (racemic) [Lipoic acid, reference compound] | – | – | Activity (antioxidant, interpretation scale) [1, 3]: None; μg of sample for 1 μg of Trolox (scale for interpreting the results, reference products) [1, 3]: NEGATIVE
2 | – | OC[C@H]1O[C@@H](Oc2ccc(O)cc2)[C@H](O)[C@@H](O)[C@@H]1O [Arbutin, reference compound] | – | – | inhibition at 88 µM (mushroom tyrosinase; at 88 μM, MPMO function): 57%
3 | – | Cc1cc(C(C)(C)C)c(O)c(C(C)(C)C)c1 [BHT, reference compound] | – | – | Activity (antioxidant, interpretation scale) [1, 3]: Good (3.01 to 50)
4 | – | N[C@@H](CS)C(=O)O [Cysteine, reference compound] | – | – | Activity (antioxidant, interpretation scale) [1, 3]: Medium (50.1 to 1000)
5 | + + + | Oc1ccc(Sc2ccc(O)cc2O)c(O)c1 [Example 1, 4,4′-thiodibenzene-1,3-diol] | 23 μg of sample for 1 μg of Trolox | 90% | inhibition at 61 µM (B16-F10 cells; B16-F10, 61 μM, α-MSH stimulated, 72 hours, negative value = inhibition): 50%
6 | + + + | CCCCCCCCCCCC(=O)Oc1cc(O)ccc1Sc1ccc(O)cc1O [Example 14, 2-(2,4-dihydroxyphenylthio)-5-hydroxyphenyl dodecanoate] | 4.8 μg of sample for 1 μg of Trolox | – | inhibition at 48 µM (B16-F10 cells; B16-F10, 48 μM, α-MSH stimulated, 72 hours, negative value = inhibition): 50%
7 | + + + | CCCCCCCC(=O)Oc1ccc(Sc2ccc(O)cc2O)c(O)c1 [Example 16, 4-(2,4-dihydroxyphenylthio)-3-hydroxyphenyl octanoate] | 33.2 μg of sample for 1 μg of Trolox | 91% | –
8 | + + + | COc1ccc(/C=C/C(=O)Oc2cc(O)ccc2Sc2ccc(O)cc2O)cc1OC [Example 23, (E)-2-(2,4-dihydroxyphenylthio)-5-hydroxyphenyl 3-(3,4-dimethoxyphenyl)acrylate] | 2.8 μg of sample for 1 μg of Trolox | 96% | –
9 | – | CCCCCCCCCCCC(=O)Oc1cc(O)ccc1[S+]([O-])c1ccc(O)cc1O (centres unmarked) [Example 26, 2-(2,4-dihydroxyphenylsulphinyl)-5-hydroxyphenyl dodecanoate] | 69 μg of sample for 1 μg of Trolox | 80% | –
10 | – | CCCCC/C=C\C/C=C\CCCCCCCC(=O)Oc1cc(O)ccc1[S+]([O-])c1ccc(O)cc1O (centres unmarked) [Example 27, (9Z,12Z)-2-(2,4-dihydroxyphenylsulphinyl)-5-hydroxyphenyl octadeca-9,12-dienoate] | 40 μg of sample for 1 μg of Trolox | 78% | –
11 | – | CCCCCCCCCCOc1cc(O)ccc1[S+]([O-])c1ccc(O)cc1O (centres unmarked) [Example 28, 4-(2-(decyloxy)-4-hydroxyphenylsulphinyl)benzene-1,3-diol] | 28 μg of sample for 1 μg of Trolox | 94% | –
12 | – | O=S(=O)(c1ccc(O)cc1O)c1ccc(O)cc1O [Example 29, 4,4′-sulphonyldibenzene-1,3-diol] | 301 μg of sample for 1 μg of Trolox | 25% | μg of sample for 1 μg of Trolox ([1]; listed as resorcinol sulphone): 301 μg of sample for 1 μg of Trolo
13 | – | CCCCCCCCCCOc1cc(O)ccc1S(=O)(=O)c1ccc(O)cc1O [Example 30, 4-(2-(decyloxy)-4-hydroxyphenylsulphonyl)benzene-1,3-diol] | 147 μg of sample for 1 μg of Trolox | 34% | –
14 | – | Oc1ccc(O)cc1 [Hydroquinone, reference compound] | – | – | IC50 (mushroom tyrosinase; [4]): 3 to 4 µM
15 | – | N[C@@H](CCC(=O)N[C@@H](CS)C(=O)NCC(=O)O)C(=O)O [Reduced glutathion, reference compound] | – | – | % inhibition (PPO) (mushroom tyrosinase; at 25 μM, PPO function): 55%; IC50 (mushroom tyrosinase; [4]): 1 to 2 µM
16 | – | O=c1c(O)c(-c2ccc(O)c(O)c2)oc2cc(O)cc(O)c12 [quercetin, reference compound] | – | – | protection of linoleic acid ([2]; positive control at 0.1% (weight/weight of linoleic acid)): around 50%; protection of linoleic acid ([2]; positive control at 1% (weight/weight of linoleic acid)): almost total protection

Row | Compound | Tyrosinase depigmenting activity result (mushroom tyrosinase) | μg of sample for 1 μg of Trolox [1] | % Protection Linoleic acid under UV/Fenton [2] | also measured
17 | CCCCOc1ccc(Sc2ccc(O)cc2O)c(O)c1 [Example 6, 4-(4-butoxy-2-hydroxyphenylthio)benzene-1,3-diol] | + + + | 14.9 μg of sample for 1 μg of Trolox | – | inhibition at 20 µM (B16-F10 cells; B16-F10, 72 h): 30%
18 | CCCCC/C=C\C/C=C\CCCCCCCC(=O)Oc1cc(O)ccc1Sc1ccc(O)cc1O [Example 21, (9Z, 12Z)-2-(2,4-dihydroxyphenylthio)-5-hydroxyphenyl octadeca-9,12-dienoate] | + + + | 5.9 μg of sample for 1 μg of Trolox | – | IC50 (mushroom tyrosinase): 11 µM; inhibition at 32 µM (B16-F10 cells; B16-F10, 32 μM, α-MSH stimulated, 72 hours, negative value = inhibition): 50%
19 | COc1ccc(/C=C/C(=O)Oc2cc(O)ccc2Sc2ccc(O)cc2O)cc1 [Example 22, (E)-2-(2,4-dihydroxyphenylthio)-5-hydroxyphenyl 3-(4-metoxyphenyl)acrylate] | + + + | 2.5 μg of sample for 1 μg of Trolox | 97% | –
